{"source": "patent US20250101058A1", "about": "“CRYSTAL FORM OF HIGH-STABILITY NOR-URSODEOXYCHOLIC BERBERINE SALT, AND PREPARATION METHOD THEREFOR” (CHENGDU BIOBEL BIOTECHNOLOGY CO., LTD, priority 2022, published 2025)", "key": {"[1]": {"test": "Competition experiment for crystalline forms A, C, and D in suspension", "type": "physicochemical", "conditions": "aw 0.2-1; stirring at room temperature, 8 days; XRPD", "protocol": "The starting material obtained in step 1 of Example 1 was added to the corresponding volume of solvent, and then allowed to suspend under stirring at room temperature for 2 h. The suspension was filtered with a 0.4 μm PTFE filter membrane to obtain a saturated solution. About 3 mg samples of crystalline forms A, C, and D were separately weighed and transferred to HPLC vials, to which was added 1 mL of saturated solution, and then the mixture was allowed to suspend under stirring at room temperature. After 8 days, the suspension was filtered to obtain the solid, and the change in crystalline form was identified by XRPD analysis."}, "[2]": {"type": "physicochemical", "conditions": "for Purity (area): HPLC", "protocol": "The samples of crystalline forms A and D were stored in an opened bottle for one week under 25° C./60% RH and 40° C./75% RH conditions, respectively. The physical and chemical stability of the samples was detected by XRPD and HPLC."}, "[3]": {"test": "Grinding stability testing (XRPD)", "type": "physicochemical", "conditions": "50 mg manually ground", "protocol": "50 mg samples of crystalline form A and crystalline form D were manually ground, and then detected by XRPD."}, "[4]": {"test": "Pressure stability testing (tableting at 10 kN)", "type": "physicochemical", "conditions": "10 kN pressure; for Adhesion percentage: (ML-MT)/ML×100%; for Tensile strength T: T=2H/πDt; for Crystalline form after pressing: XRPD of crushed sample; for Tablet diameter D / Tablet thickness t: after 24 h elastic recovery; for Adhesion amount: powder adhesive to the punch; for Hardness H: radial crushing strength", "protocol": "100 mg samples of crystalline forms A and D were respectively added to […] of round flat punch, and then pressed into circular tablets using 10 kN pressure. The loading mass (ML) and tablet mass (MT) were recorded, and then the formula ma=(ML-MT)/ML×100% was used to calculate the mass percentage (ma) of the powder adhesive to the punch; the pressed tablets were kept in a dryer for 24 h for elastic recovery. After elastic recovery, the diameter (D) and thickness (t) of the tablet were measured using a vernier caliper. The radial crushing strength (hardness, H) was measured using a tablet hardness tester, and the XRPD pattern of the crushed sample was also tested."}, "[5]": {"test": "Stability of crystalline form G on heating and on exposure after opening the cover", "type": "physicochemical", "conditions": "cover opened and kept for 1 h"}, "[6]": {"conditions": "previous studies, CN2021110940333; cited from earlier work"}, "[7]": {"test": "Hygroscopicity test (dynamic vapor sorption, DVS)", "type": "physicochemical", "protocol": "The mass change percentage of crystalline form A was tested using dynamic vapor sorption (DVS) under constant temperature conditions of 25° C. and various humidity conditions, with a humidity change of 30% RH to 95% RH to 0% RH to 95% RH.\nCrystalline form A had good physical stability."}, "[8]": {"conditions": "One week, 25° C./60% RH and 40° C./75% RH"}}, "note": "Read-outs that look alike come from different tables or passages of the source."}
{"compound": "CC(CC(=O)[O-])C1CCC2C3C(O)CC4CC(O)CCC4(C)C3CCC12C.COc1ccc2cc3[n+](cc2c1OC)CCc1cc2c(cc1-3)OCO2", "note": "(stereo not drawn) [Crystalline form C, nor-ursodeoxycholic berberine salt]", "values": [{"measurement": "Solid form obtained after competition in suspension", "setting": "[1]", "result": "transition to form A"}]}
{"compound": "CC(CC(=O)[O-])C1CCC2C3C(O)CC4CC(O)CCC4(C)C3CCC12C.COc1ccc2cc3[n+](cc2c1OC)CCc1cc2c(cc1-3)OCO2", "note": "(stereo not drawn) [Crystalline form D, nor-ursodeoxycholic berberine salt]", "values": [{"measurement": "Change of crystal structure / crystalline form (physical stability)", "setting": "[2]", "result": "not obviously changed"}, {"measurement": "Purity (area)", "setting": "[2]; Initial", "result": 98.61, "unit": "%"}, {"measurement": "Purity decrease", "setting": "[2]; One week, 25° C./60% RH", "result": 0.37, "unit": "%"}, {"measurement": "Relative purity percentage (vs initial purity)", "setting": "[2]; One week, 25° C./60% RH", "result": 99.63, "unit": "%"}, {"measurement": "Crystallinity after storage", "setting": "[2]; [8]", "result": "the crystallinity decreased"}, {"measurement": "Sample appearance after storage", "setting": "[2]; [8]", "result": "turned dark brown"}, {"measurement": "Purity (area)", "setting": "[2]; One week, 25° C./60% RH", "result": 98.24, "unit": "%"}, {"measurement": "Purity decrease", "setting": "[2]; One week, 40° C./75% RH", "result": 0.62, "unit": "%"}, {"measurement": "Relative purity percentage (vs initial purity)", "setting": "[2]; One week, 40° C./75% RH", "result": 99.37, "unit": "%"}, {"measurement": "Purity (area)", "setting": "[2]; One week, 40° C./75% RH", "result": 97.99, "unit": "%"}, {"measurement": "Crystalline form after grinding", "setting": "[3]", "result": "transformed into amorphous"}, {"measurement": "Tablet mass", "setting": "[4]", "result": 96.9, "unit": "mg"}, {"measurement": "Adhesion percentage", "setting": "[4]", "result": 3.3, "unit": "%"}, {"measurement": "Tensile strength T", "setting": "[4]", "result": 1.69, "unit": "MPa"}, {"measurement": "Crystalline form after pressing", "setting": "[4]", "result": "remained unchanged"}, {"measurement": "Tablet diameter D", "setting": "[4]", "result": 6.02, "unit": "mm"}, {"measurement": "Tablet thickness t", "setting": "[4]", "result": 2.90, "unit": "mm"}, {"measurement": "Adhesion amount", "setting": "[4]", "result": 3.3, "unit": "mg"}, {"measurement": "Hardness H", "setting": "[4]", "result": 46.31, "unit": "N"}]}
{"compound": "CC(CC(=O)[O-])C1CCC2C3C(O)CC4CC(O)CCC4(C)C3CCC12C.COc1ccc2cc3[n+](cc2c1OC)CCc1cc2c(cc1-3)OCO2", "note": "(stereo not drawn) [Crystalline form G, nor-ursodeoxycholic berberine salt]", "values": [{"measurement": "Crystalline form after opening the cover", "setting": "[5]", "result": "turned back into form A"}]}
{"compound": "nor-ursodeoxycholic berberine salt", "values": [{"measurement": "Alanine aminotransferase (ALT)", "setting": "[6]", "result": "significantly reduce"}, {"measurement": "Alkaline phosphatase (ALP)", "setting": "[6]", "result": "significantly reduce"}, {"measurement": "Glutamic oxaloacetic transaminase (AST)", "setting": "[6]", "result": "significantly reduce"}, {"measurement": "Liver pathological damage (such as hepatic steatosis)", "setting": "[6]", "result": "significant improvement effect"}, {"measurement": "Therapeutic effect on fatty liver, liver fibrosis, and cirrhosis versus HTD1801", "setting": "[6]", "result": "significantly better than that of HTD1801"}, {"measurement": "Therapeutic effect on fatty liver, liver fibrosis, and cirrhosis versus individual norUDCA and berberine hydrochloride", "setting": "[6]", "result": "superior to the sum of the effects produced by individual norUDCA and berberine hydrochloride"}]}
{"compound": "nor-ursodeoxycholic berberine salt [Crystalline form A]", "values": [{"measurement": "Water adsorption rate", "setting": "[7]; DVS, 25° C., 80% RH", "result": 8.7, "unit": "%"}, {"measurement": "Water absorption behaviour", "setting": "[7]; DVS, 25° C., after the relative humidity reached 10%", "result": "slowly absorbed water"}, {"measurement": "Water absorption behaviour", "setting": "[7]; DVS, 25° C., relative humidity range of 0% to 10%", "result": "rapidly absorbed water"}, {"measurement": "Crystalline form before and after DVS testing", "setting": "[7]; XRPD after DVS", "result": "did not change"}, {"measurement": "Change of crystal structure / crystalline form (physical stability)", "setting": "[2]", "result": "the crystal structure was not changed"}, {"measurement": "Purity change (chemical stability)", "setting": "[2]", "result": "not changed significantly"}, {"measurement": "Purity (area)", "setting": "[2]; Initial", "result": 99.26, "unit": "%"}, {"measurement": "Relative purity percentage (vs initial purity)", "setting": "[2]; One week, 25° C./60% RH", "result": 100.0, "unit": "%"}, {"measurement": "Purity (area)", "setting": "[2]; One week, 25° C./60% RH", "result": 99.24, "unit": "%"}, {"measurement": "Relative purity percentage (vs initial purity)", "setting": "[2]; One week, 40° C./75% RH", "result": 100.0, "unit": "%"}, {"measurement": "Purity (area)", "setting": "[2]; One week, 40° C./75% RH", "result": 99.23, "unit": "%"}, {"measurement": "Crystalline form after grinding", "setting": "[3]", "result": "remained unchanged"}, {"measurement": "Crystallinity after grinding", "setting": "[3]", "result": "the crystallinity decreased"}, {"measurement": "Tablet mass", "setting": "[4]", "result": 103.2, "unit": "mg"}, {"measurement": "Adhesion percentage", "setting": "[4]", "result": 1.6, "unit": "%"}, {"measurement": "Tensile strength T", "setting": "[4]", "result": 2.38, "unit": "MPa"}, {"measurement": "Crystalline form after pressing", "setting": "[4]", "result": "remained unchanged"}, {"measurement": "Tablet diameter D", "setting": "[4]", "result": 6.02, "unit": "mm"}, {"measurement": "Tablet thickness t", "setting": "[4]", "result": 2.90, "unit": "mm"}, {"measurement": "Adhesion amount", "setting": "[4]", "result": 1.7, "unit": "mg"}, {"measurement": "Hardness H", "setting": "[4]", "result": 65.37, "unit": "N"}]}
